# According to patent publication US4558127A, “5-Fluorouracil nitroxyl derivatives possessing antitumor activity” (priority 1984, dated 1985):
# “Also recorded” adds a separate entry of the source. Where a name gives a salt, the structure may show the parent alone.
# How the values were obtained:
# [1] = Toxicity (LD50), intraperitoneal administration, mongrel white mice, Burns method; type: in vivo, mouse
# Excerpt: Toxicity of the compounds according to the present invention has been determined on mongrel white mice in experimental intraperitoneal administration of these compounds and evaluated by the Burns method (using curves of accumulation of the animal death frequencies vs. dose).
# As the toxicity characteristic use was made of the dose causing death of 50% of the animals employed for the experiment (LD50).
# For the determination of toxicity of (1,3-bis-(2,2,5,5-tetramethyl-1-oxyl-Δ^3 -pyrrolin-3-oyl)-5-fluorouracyl(compound I), 1-(2,2,5,5-tetramethyl-1-oxyl-Δ^3 -pyrrolin-3-oyl)-5-fluorouracyl (compound II) and 3-(2,2,5,5-tetramethyl-1-oxyl-Δ^3 -pyrrolin-3-oyl)-5-fluorouracyl (compound III), these compounds were administered intraperitoneally in the form of an emulsion in a 10% aqueous solution of polyoxyethylsorbitan monooleate (Tween-80, Ferak Berlin West Germany).
# For the determination of toxicity of sodium salt of 3-(2,2,5,5-tetramethyl-1-oxyl-Δ^3 -pyrrolin-3-oyl)-5-fluorouracyl (compound IV), Ftorafur and 5-fluorouracyl, these compounds were also administered intraperitoneally in the form of aqueous solutions.
# leukemia La [2] = assay: Antitumor activity on grafted leukemia La in mice (ELS, kinetic criterion, chemotherapeutic index); type: in vivo, mouse; details: for Chemotherapeutic index I60 = LD10/ED60 / ELS (extension of average life span) / kinetic criterion (.chi.) = 1-.phi.t/.phi.c: La, C57Bl mice; for Chemotherapeutic index I60 = LD10/ED60: i/p
# Excerpt: (§1) For the determination of antitumor activity these compounds (I, II, III, IV), 5-fluorouracyl and Ftorafur were used in the same solvents as in the determination of toxicity.
# (§2) The determination of antitumor activity was effected on grafted tumors of mice: leukemia L-1210, leukemia P-388, Leukemia La, melanoma B-16, adenocarcinoma 755 (Ca-755), as well as on grafted tumors of rats: Schwetz erythroleukosis, Walker carcinosarcoma (WCS), Geren carcinoma.
# Leukemia La was grafted intraperitoneally using a suspension of leukemic cells in a physiological solution. The inoculum contained 10^8 of leukemia cells. […]
# In the determination of the antitumor activity the test compounds were introduced in equitoxic doses.
# (§3) The criterion of the antitumor activity for leukemia P-338, L-1210 and La is the extension of an average life span (ELS) of the test animals as compared to the control ones, expressed in percent and calculated by the formula: [formula] wherein Lt --life span of animals in the test group;
# (§4) Lc --life span of animals in the control group, i.e. without administration of the test compounds.
# (§5) The comparative assessment of the scope of therapeutic action is effected using chemotherapeutic indices I40, I60 and I100 : I40 =LD10 /ED40, I60 =LD10 /ED60 I100 =LD10 /ED100, where LD10 =dose causing death of 10% of the animals; ED40, ED60 and ED100 are effective doses causing extension of the animal's life span by 40, 60 and 100 percent respectively.
# melanoma B-16 = assay: Antitumor activity on grafted melanoma B-16 in mice (inhibition of tumor volume gain); type: in vivo, mouse; details: for Inhibition of tumor volume gain: B-16, CBAF1 mice
# Excerpt: as §1, §2
# (§6) In the determination of the antitumor activity the test compounds were introduced in equitoxic doses. Ftorafur was also used in the optimal dose which is equal to […].
# (§7) As the criterion of antitumor activity on solid tumors used is the inhibition (I) of the tumor volume gain in comparison with the control, expressed in percent and calculated by the formula: [formula] wherein Vc --average volume of the tumor in the control,
# (§8) Vt --average volume of the tumor in the experiment.
# Schwetz erythroleukosis = assay: Antitumor activity on grafted Schwetz erythroleukosis in rats; type: in vivo, rat; details: for Inhibition of tumor volume gain: mongrel rats, days 7-14
# Excerpt: as §1, §2, §6, §7, §8
# sarcoma 180 = details: background art; cited from earlier work
# Harding-Passey melanoma = details: background art; cited from earlier work
# Walker carcinosarcoma = details: background art; cited from earlier work
# [3] = test system: alveolar carcinoma of liver; details: background art; cited from earlier work
# [4] = background art; cited from earlier work
# adenocarcinoma 755 = assay: Kinetic curves of tumor volume gain, adenocarcinoma 755 in mice (FIG. 2); details: C 57 B1 mice, equimolar single doses 0.2 mmol/kg i/p, daily over 10 days
# Method: To reveal the antitumor activity and kinetic characteristic of the therapeutic effectiveness of compound (IV) and Ftorafur in the case of adenocarcinoma 755, a series of experiments was conducted on mice C 57 B1. Adenocarcinoma 755 was grafted using a tumor cell suspension in a physiological solution (dilution 1:1 by mass) and was administered hypodermally in the dose of 0.3 ml to each mouse. The test compounds were administered intraperitoneally, starting from the 1-st day after grafting of the tumor, daily over the period of 10 days.
# The tumor volume increase (V) of adenocarcinoma 755 was determined in cm^3 for 28 days (.tau.).
# In the kinetic curve 5 experimental points corresponding to the control experiment are conventionally shown as circles, while experimental points corresponding to the use of Ftorafur are conventionally shown as squares.
# leukemia L-1210 = assay: Antitumor activity on grafted leukemia L-1210 in mice; type: in vivo, mouse; details: for ELS (extension of average life span): control life span 7,5 days
# Excerpt: as §1, §2
# Leukemia L-1210 was grafted intraperitoneally, 10^5 cells in 0.2 ml of ascitic liquid.
# as §6, §3, §4, §5
# leukemia P-388 = assay: Antitumor activity on grafted leukemia P-388 in mice; type: in vivo, mouse; details: for ELS (extension of average life span): control life span 10 days
# Excerpt: as §1, §2
# Leukemia P-388 was grafted intraperitoneally, 10^6 cells in 0.2 ml of ascitic liquid.
# as §6, §3, §4, §5
# [5] = test system: adenocarcinoma 755 (Ca-755); assay: Antitumor activity on grafted adenocarcinoma 755 in mice; type: in vivo, mouse
# Excerpt: as §1, §2, §6, §7, §8
# [6] = test system: Walker carcinosarcoma (WCS); assay: Antitumor activity on grafted Walker carcinosarcoma in rats; type: in vivo, rat
# Excerpt: as §1, §2, §6, §7, §8
# Geren carcinoma = assay: Antitumor activity on grafted Geren carcinoma in rats; type: in vivo, rat; details: mongrel rats, single dose 60 mg/kg i/p, days 7-16
# Excerpt: as §1, §2, §6, §7, §8
# leukemia La [7] = assay: Kinetic curves of spleen mass, leukemia La in mice (FIG. 1); type: in vivo, mouse; details: equimolar single doses 0.2 mmol/kg i/p
# Method: Leukemia La was grafted intraperitoneally by means of a suspension of leukemic cells in a physiological solution. The inoculum contained 10^8 of leukemic cells. Compound (IV), Ftorafur and 5-fluorouracyl were also administered intraperitoneally so that the first administration was effected 3 hours after the tumor grafting, and then--on a daily basis over the period of seven days.
# Determined were the variations of mass (M) of mice spleen in g over 14 days (.tau.). The obtained data were used to plot a graph in coordinates M-.tau. represented in FIG. 1.
# grafted tumors = assay: Antitumor activity on grafted tumors, overall assessment; type: in vivo, mice and rats
# Excerpt: as §1, §2, §6, §3
# As the criterion of antitumor activity on solid tumors used is the inhibition (I) of the tumor volume gain in comparison with the control, expressed in percent and calculated by the formula: [formula] wherein Vc --average volume of the tumor in the control, […]
# Solubility = type: physicochemical; details: water
# [8] = Stability against hydrolysis; type: physicochemical; details: room temperature, pH 3 to 11, about 5 hours
# [9] = Reaction of aqueous solutions; type: physicochemical
# [10] = single dose 45 mg/kg i/p, days 1-6
# [11] = Ca-755, C57Bl mice, single dose 65 mg/kg i/p, days 1-10
smiles,measurement,setting,value
"O=c1[nH]c(=O)n(C2CCCO2)cc1F (stereo not drawn) [Ftorafur, 1-(α-furanidyl)-5-fluorouracyl, reference compound]",LD50,"[1]; mouse, in vivo, ip, mice, intraperitoneal, I, II, III as emulsion in 10% aqueous Tween-80, IV, Ftorafur, 5-fluorouracyl as aqueous solutions",640 mg/kg
same,Chemotherapeutic index I60 = LD10/ED60,"leukemia La [2]; days 1,5,9",2.0
same,ELS (extension of average life span),leukemia La [2]; [10],15%
same,kinetic criterion (.chi.) = 1-.phi.t/.phi.c,leukemia La [2]; [10],0.17
same,ELS (extension of average life span),"leukemia La [2]; single dose 300 mg/kg i/p, days 1,5,9",60%
same,Inhibition of tumor volume gain,"melanoma B-16; single dose 300 mg/kg, days 1,5,9, mode of grafting printed i/p",10%
same,Inhibition of tumor volume gain,Schwetz erythroleukosis; single dose 90 mg/kg i/p,15%
same,activity in respect of sarcoma 180,sarcoma 180,rather high activity
same,activity in respect of Harding-Passey melanoma,Harding-Passey melanoma,rather high activity
same,activity in respect of Walker carcinosarcoma,Walker carcinosarcoma,rather high activity
same,activity in respect of alveolar carcinoma of liver,[3],rather high activity
same,toxicity / side effects in words,[4],inhibits hemopoiesis and causes complications on the side of the gastro-intestinal tract
same,"inhibition of tumor growth, in words",adenocarcinoma 755,no antitumor activity
"CC1(C)C=C(C(=O)n2c(=O)[nH]cc(F)c2=O)C(C)(C)N1[O] [IV, sodium salt of 3-(2,2,5,5-tetramethyl-1-oxyl-Δ^3-pyrrolin-3-oyl)-5-fluorouracyl]",toxicity in words,[1]; general statement,low toxicity
same,"toxicity compared with Ftorafur, in words","[1]; mice, i/p",approach toxicity of Ftorafur
same,"less toxic than 5-fluorouracyl, fold","[1]; mice, i/p, relative to 5-fluorouracyl",5 times
same,"Toxicity, LD50","[1]; mice, intraperitoneal, I, II, III as emulsion in 10% aqueous Tween-80, IV, Ftorafur, 5-fluorouracyl as aqueous solutions",510 mg/kg
same,Chemotherapeutic index I60 = LD10/ED60,"leukemia La [2]; days 1,3,5,7,9","4,2"
same,kinetic criterion (.chi.) = 1-.phi.t/.phi.c,"leukemia La [2]; single dose 75 mg/kg i/p, days 1-7 after grafting","0,7"
same,ELS (extension of average life span),"leukemia La [2]; single dose 75 mg/kg i/p, days 1-7 after grafting, control life span 6,5 days",80%
same,ELS (extension of average life span),"leukemia La [2]; single dose 100 mg/kg i/p, days 1,3,5,7,9, control life span 6,5 days",60%
same,"chemotherapeutic index I60 relative to that of 5-fluorouracyl, fold",leukemia La [2]; leukemia La,1.2 time
same,"chemotherapeutic index I60 relative to that of Ftorafur, fold",leukemia La [2]; leukemia La,2 times
same,"therapeutic effect compared with 5-fluorouracyl, in words",leukemia La [2]; leukemia La,comparable with that of 5-fluorouracyl
same,"effectiveness superior to Ftorafur, fold","leukemia La [2]; leukemia La, equitoxic doses, comparable treatment schedules",5 times
same,Inhibition of tumor volume gain,"melanoma B-16; single dose 75 mg/kg i/p, days 1-10",30%
same,"effectiveness relative to Ftorafur, fold","melanoma B-16; melanoma B-16, comparable doses and treatment procedures",3 times
same,Chemotherapeutic index I60 = LD10/ED60,"leukemia L-1210; L-1210, BDF1 mice, i/p, days 1-7","5,6"
same,ELS (extension of average life span),"leukemia L-1210; L-1210, BDF1 mice, single dose 65 mg/kg i/p, days 1-9",100%
same,ELS (extension of average life span),"leukemia L-1210; L-1210, BDF1 mice, single dose 75 mg/kg i/p, days 1-7",60%
same,"antitumor activity, leukemia L-1210, in words","leukemia L-1210; mouse, in vivo",high antitumor activity
same,Chemotherapeutic index I100 = LD10/ED100,"leukemia P-388; P-388, BDF1 mice, i/p, days 1,3,5,7,9","4,2"
same,ELS (extension of average life span),"leukemia P-388; P-388, BDF1 mice, single dose 75 mg/kg i/p, days 1-7",90%
same,ELS (extension of average life span),"leukemia P-388; P-388, BDF1 mice, single dose 100 mg/kg i/p, days 1,3,5,7,9",100%
same,"antitumor activity, leukemia P-388, in words","leukemia P-388; mouse, in vivo",high antitumor activity
same,Inhibition of tumor volume gain,[5]; [11],70%
same,kinetic criterion (.chi.) = 1-.phi.t/.phi.c,[5]; [11],0.3
same,"antitumor activity, adenocarcinoma 755, in words","[5]; mouse, in vivo",considerable antitumor activity
same,Inhibition of tumor volume gain,"[6]; WCS, mongrel rats, single dose 60 mg/kg i/p, days 1-10",75%
same,"antitumor activity, Walker carcinosarcoma, in words","[6]; rat, in vivo",considerable antitumor activity
same,"effectiveness relative to Ftorafur and 5-fluorouracyl, fold",Schwetz erythroleukosis; comparable doses and treatment procedures,2-3 times
same,Inhibition of tumor volume gain,Schwetz erythroleukosis; single dose 75 mg/kg i/p,45%
same,Inhibition of tumor volume gain,Geren carcinoma,20%
same,"inhibition of leukemia La (spleen mass gain), in words","leukemia La [7]; C 57 B1 mice, daily over seven days",most effective in inhibition of leukemia La
same,"activity relative to 5-fluorouracyl (spleen mass gain), in words",leukemia La [7],by several times superior
same,"antileukemic effect, in words",grafted tumors; in vivo,high antileukemic activity
same,"effect on solid tumors, in words",grafted tumors; solid tumors,most active; also recorded: high antitumor activity in respect of solid tumors
same,solubility in water,Solubility,very well soluble in water
same,stability against hydrolysis,[8],do not undergo any noticeable hydrolytical decomposition
same,reaction of aqueous solutions,[9],alkaline reaction
same,"inhibition of tumor growth, in words",adenocarcinoma 755,considerable inhibition of the tumor growth
